Assay results from article PMC10454375, “Cell-Impermeable Inhibitors Confirm That Intracellular Human Transglutaminase 2 Is Responsible for the Transglutaminase-Associated Cancer Phenotype” (International Journal of Molecular Sciences, 2023).
Like-named read-outs stand apart in the source and are kept apart here.

Columns and labels:
Recombinant human TG2 [1] = target: T1, Recombinant human TG2 (Homo sapiens, UniProt P21980); assay: rhTG2 inhibition assay, continuous chromogenic substrate AL5, Kitz and Wilson conditions; format: biochemical; settings: for kinact / Ki: * compounds fitted to double reciprocal model, 25 °C, pH 6.9, 100 µM AL5; for kinact/KI: * double reciprocal model, ** lowest concentrations of saturation plot fitted to a linear model; for Ki: irreversible inhibition
T1 construct: GST (with PSP protease site, plasmid pGST-PSP-rhTG2) (N, cleaved yes); made in house; host or cells: E. coli (BL21)
T1 sequence (P21980 1-687): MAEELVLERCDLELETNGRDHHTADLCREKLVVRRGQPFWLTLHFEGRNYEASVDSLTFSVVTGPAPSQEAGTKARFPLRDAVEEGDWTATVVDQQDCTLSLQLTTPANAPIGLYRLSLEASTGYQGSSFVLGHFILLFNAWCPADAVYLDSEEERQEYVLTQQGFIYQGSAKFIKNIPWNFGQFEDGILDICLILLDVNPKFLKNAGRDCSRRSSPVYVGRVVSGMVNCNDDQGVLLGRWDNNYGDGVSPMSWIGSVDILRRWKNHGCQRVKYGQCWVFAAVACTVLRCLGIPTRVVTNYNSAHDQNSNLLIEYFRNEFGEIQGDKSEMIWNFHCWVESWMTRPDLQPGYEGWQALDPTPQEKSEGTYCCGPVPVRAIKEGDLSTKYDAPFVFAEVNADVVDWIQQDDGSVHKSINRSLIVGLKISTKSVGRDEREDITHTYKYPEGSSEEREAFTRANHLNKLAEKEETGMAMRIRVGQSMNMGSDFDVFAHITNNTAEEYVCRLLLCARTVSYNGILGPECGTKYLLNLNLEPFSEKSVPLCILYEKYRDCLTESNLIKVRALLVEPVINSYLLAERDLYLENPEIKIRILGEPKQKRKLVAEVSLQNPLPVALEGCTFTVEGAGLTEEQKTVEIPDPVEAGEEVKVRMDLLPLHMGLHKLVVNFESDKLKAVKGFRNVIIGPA
Excerpt: Relative to the original scaffold, we expected the potency of these novel chemical biology tools to decrease slightly, due to the additional bulk incorporated on the glutamate sidechain. Although we expected the sidechain moiety to be directed into bulk solvent, we were concerned that its mass and charge would disfavor the binding interaction. Therefore, we kinetically characterized these probes as rigorously as possible, in order to determine their relative affinity and reactivity. For most inhibitors we have made, including the parent inhibitor AA9 (Figure 1), we have been able to measure kinetic parameters under Kitz and Wilson conditions. This experimental approach is based on the use of a continuous activity assay and the measurement of first-order rate constants for the time-dependent inactivation of enzyme (see Figure 2A and Figures S1–S5 in Supplementary Materials). The dependence of these observed rate constants (kobs) on the inhibitor concentration divided by alpha ([I]/α) can then be fitted to a hyperbolic saturation model where the upper plateau represents the rate constant of inactivation (kinact), and the concentration providing half the rate constant of inactivation represents KI (Figure 2B). […] To compensate for this, the overall efficiency of the inhibitor (kinact/KI) can be derived from the slope of the linear region of the saturation plot (Figure 2C). To gauge the individual parameters, a double reciprocal fitting was also employed where KI can be calculated from the x-axis intercept and kinact can be calculated from the y-axis intercept (Figure 2D).
Recombinant human TG2 was expressed and purified using previously published protocols. The inhibition was monitored using a continuous chromogenic substrate AL5 [38] under Kitz and Wilson conditions. In brief, 125 µL of assay buffer composed of 111.11 mM MOPS, 15.56 CaCl2 pH 6.9 was added to a 1.5 mL Eppendorf tube to achieve final assay concentrations of 50 mM MOPS and […] CaCl2. To the tube was then added the respective concentration of inhibitor from an aqueous working stock (<5% DMSO final conditions). Various volumes of water were then added to ensure the final volumes were equal. The AL5 substrate was added to the Eppendorf tube as a 5 µL 5.56 mM solution in DMSO to obtain a final assay concentration of 100 µM. A 96-well polystyrene microplate then had 180 µL of the assay mixture added to it. The enzymatic reaction was finally initiated by addition of 20 µL 5 mU prediluted TG2 in assay buffer using a multichannel pipette. The reaction was monitored at 405 nm using a BioTek Synergy 4 plate reader for 20 min at 25 °C. A positive control with no inhibitor and a blank with no enzyme nor inhibitor were also included. The blank subtracted kinetic curves were then analyzed. The observed first-order rate constants of inactivation were gathered through a one-phase association model using the GraphPad software package. The rate constants were then fit to various models to elucidate the inhibition parameters. If saturation was achieved, they were fit to a saturation model versus the inhibitor concentration divided by alpha (where α=1+Substrate/Km ). A linear regression of the linear region of this saturation fitting was calculated to obtain a ratio of kinact/KI. A further double reciprocal model was used if saturation could not be observed due to the limitations in sensitivity of the assay or if solubility issues were present.

GST-TG2 fusion protein = target: T2, GST-TG2 fusion protein (Homo sapiens, UniProt P21980); assay: Pull-down of rhTG2 from E. coli lysate (CuAAC with desthiobiotin-PEG3-azide, streptavidin resin); format: binding; settings: E. coli lysate overexpressing GST-rhTG2; elution with 4 mM biotin
T2 construct: made in house; host or cells: BL21 E. coli (crude lysate)
T2 sequence (P21980 with tags, fused parts or gaps): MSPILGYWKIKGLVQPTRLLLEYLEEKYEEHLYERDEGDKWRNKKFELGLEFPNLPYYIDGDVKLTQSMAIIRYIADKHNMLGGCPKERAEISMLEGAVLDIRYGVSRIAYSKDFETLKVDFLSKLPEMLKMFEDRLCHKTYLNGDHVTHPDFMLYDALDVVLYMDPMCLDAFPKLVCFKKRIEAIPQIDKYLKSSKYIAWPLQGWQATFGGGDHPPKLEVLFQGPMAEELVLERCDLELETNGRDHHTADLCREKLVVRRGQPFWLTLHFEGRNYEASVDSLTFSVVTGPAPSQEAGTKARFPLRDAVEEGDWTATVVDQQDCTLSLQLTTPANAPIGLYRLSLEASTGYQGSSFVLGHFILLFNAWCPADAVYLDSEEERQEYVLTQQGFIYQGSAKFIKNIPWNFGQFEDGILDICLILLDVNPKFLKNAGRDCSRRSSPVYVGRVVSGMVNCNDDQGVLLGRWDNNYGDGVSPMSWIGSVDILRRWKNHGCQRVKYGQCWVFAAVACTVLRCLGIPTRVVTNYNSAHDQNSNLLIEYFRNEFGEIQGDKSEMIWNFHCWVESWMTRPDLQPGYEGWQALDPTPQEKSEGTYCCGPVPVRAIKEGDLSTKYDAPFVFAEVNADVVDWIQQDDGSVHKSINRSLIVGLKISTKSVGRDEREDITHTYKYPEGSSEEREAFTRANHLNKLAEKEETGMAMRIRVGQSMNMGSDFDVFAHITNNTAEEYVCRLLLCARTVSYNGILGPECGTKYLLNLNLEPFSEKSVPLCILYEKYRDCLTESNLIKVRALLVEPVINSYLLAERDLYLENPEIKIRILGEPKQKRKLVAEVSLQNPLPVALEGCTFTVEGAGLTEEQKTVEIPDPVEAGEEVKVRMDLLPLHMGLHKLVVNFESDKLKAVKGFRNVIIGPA
Method: As a proof of concept, previously described BL21 E. coli cells were transformed with a plasmid (pGST-PSP-rhTG2) to induce overexpression of recombinant human TG2 (rhTG2) as a GST fusion protein [47]. The bacterial cells were then lysed and exposed to the propargylated inhibitor 31 to allow for labelling. A subsequent CuAAC reaction was then performed in the same cell lysate to incorporate the desthiobitoin-PEG3-azide into labelled TG2. The lysate was then passed over streptavidin resin to isolate all proteins that had reacted with inhibitor 31. These proteins were then eluted from the resin using a solution of 4 mM biotin, and the eluant was analyzed by SDS-PAGE. […] This validates not only the TG2-selectivity of probe 31, but also the efficiency of the click reaction of the GST-TG2-31 adduct, allowing for the isolation of TG2 from cell lysate in a very mild manner.
A total of 400 µL of the aforementioned E. coli cell lysate combined with 133 µL of a solution of 75 µM 31 was added to a 1.5 mL Eppendorf tube. The labelling was allowed to occur for 25 min. Totals of 25 µL of a solution of 500 µM azide-PEG3-desthiobiotin 32 and 500 µM cupric sulfate in 20 mM HEPES at pH 8.0 were added to the tube. To initiate the click reaction, 100 µL of 150 µM sodium ascorbate solution in mQ H2O was added and gently rocked for 2.5 h at room temperature. […]

Recombinant human TG2 [2] = target: T1, Recombinant human TG2; design: method as in PMID 36846375; settings: previous lead compound, Figure 1; cited from earlier work
[3] = Solubility in aqueous solutions; format: physicochemical; settings: read-out: concentration above which decreased solubility in aqueous solutions was displayed

Compound	kinact (Recombinant human TG2 [1])	kinact/KI (Recombinant human TG2 [1])	Ki (Recombinant human TG2 [1])	proteins isolated by pull-down (TG2 selectivity) (GST-TG2 fusion protein)	kinact/KI (Recombinant human TG2 [2])	solubility [3]
C#CCNC(=O)CC[C@H](NC(=O)c1cccc2ccccc12)C(=O)N1CCN(C(=O)[C@H](CCCCNC(=O)C=C)NC(=O)OCc2ccccc2)CC1 [Compound 31]	0.00767 s⁻¹	8280 M⁻¹ s⁻¹	0.9 ± 0.5 µM	the only protein efficiently isolated in this experiment corresponds to the GST-TG2 fusion protein	–	–
C=CC(=O)NCCCC[C@H](NC(=O)OCc1ccccc1)C(=O)N1CCN(C(=O)c2cccc3ccccc23)CC1 [AA9]	–	–	–	–	1670 M⁻¹ s⁻¹	–
C=CC(=O)NCCCC[C@H](NC(=O)OCc1ccccc1)C(=O)N1CCN(C(=O)[C@H](CCC(=O)NCCCCCNC(=O)c2cc3ccc(N(CC)CC)cc3oc2=O)NC(=O)c2cccc3ccccc23)CC1 [Compound 22]	0.004 s⁻¹	3130 M⁻¹ s⁻¹	1.3 ± 1.1 µM	–	–	> 25 µM
